Data on seven molecules can be found in patent US8901301B2, “Pyrrolo[2,3-]pyridine kinase inhibitors” (Plexxikon Inc., priority 2009, dated 2014).

Structures are written as SMILES.

For one assay, the target named is Brk (Homo sapiens, UniProt Q13882). In words: Biochemical inhibitory activity, other protein kinases: Brk. To be noted: listing of the kinase means IC50 <1 μM.
In the next assay the target is PI3Kα (Homo sapiens, UniProt P42336). Nature of the assay: Biochemical inhibitory activity, other protein kinases: PI3Kα. To be noted: listing of the kinase means IC50 >1 μM.
For another assay, the target named is T1, Itk (Homo sapiens, UniProt Q08881).
T1 sequence (Q08881 1-620): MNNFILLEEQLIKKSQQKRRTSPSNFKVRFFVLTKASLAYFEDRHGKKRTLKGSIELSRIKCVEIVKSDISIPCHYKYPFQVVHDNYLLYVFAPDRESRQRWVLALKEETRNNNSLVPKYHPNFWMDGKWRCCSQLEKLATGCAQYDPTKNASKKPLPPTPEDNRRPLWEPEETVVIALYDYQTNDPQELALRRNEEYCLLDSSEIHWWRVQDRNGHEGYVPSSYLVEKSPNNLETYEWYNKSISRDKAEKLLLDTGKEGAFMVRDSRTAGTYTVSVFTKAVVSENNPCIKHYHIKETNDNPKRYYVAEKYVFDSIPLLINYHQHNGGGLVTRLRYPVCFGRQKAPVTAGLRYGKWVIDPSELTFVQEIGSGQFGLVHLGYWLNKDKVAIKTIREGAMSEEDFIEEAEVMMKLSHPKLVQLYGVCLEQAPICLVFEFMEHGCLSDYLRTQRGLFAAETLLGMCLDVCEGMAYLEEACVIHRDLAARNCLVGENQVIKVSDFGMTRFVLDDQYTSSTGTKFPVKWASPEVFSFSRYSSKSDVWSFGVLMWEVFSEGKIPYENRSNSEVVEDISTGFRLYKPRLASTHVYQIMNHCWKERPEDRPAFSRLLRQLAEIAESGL
Nature of the assay: Biochemical inhibitory activity, other protein kinases: Itk. The following applies: listing of the kinase means IC50 >1 μM.

The next assay deals with Jnk1 (Homo sapiens, UniProt P45983). In words: Biochemical inhibitory activity, other protein kinases: Jnk1. The following applies: listing of the kinase means IC50 >1 μM.
Sequence of Jnk1 (P45983 whole entry, species assumed): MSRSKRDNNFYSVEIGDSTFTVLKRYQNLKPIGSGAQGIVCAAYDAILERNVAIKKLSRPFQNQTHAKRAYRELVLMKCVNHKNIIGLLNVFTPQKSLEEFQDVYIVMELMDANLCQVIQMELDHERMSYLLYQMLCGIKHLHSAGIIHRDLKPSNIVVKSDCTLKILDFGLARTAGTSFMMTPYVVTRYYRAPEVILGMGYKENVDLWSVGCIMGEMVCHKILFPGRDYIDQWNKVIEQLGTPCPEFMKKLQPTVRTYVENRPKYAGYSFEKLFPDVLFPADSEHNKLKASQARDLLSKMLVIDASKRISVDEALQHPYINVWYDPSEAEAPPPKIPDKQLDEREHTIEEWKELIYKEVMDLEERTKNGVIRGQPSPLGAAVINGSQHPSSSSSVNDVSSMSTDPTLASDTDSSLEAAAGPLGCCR
The next assay has as its target Trk (Homo sapiens, UniProt P04629). In words: Biochemical inhibitory activity, other protein kinases: Trk. To be noted: listing of the kinase means IC50 >1 μM.
The target in a further assay is PI3Kγ (Homo sapiens, UniProt P48736). In words: Biochemical inhibitory activity, other protein kinases: PI3Kγ. To be noted: listing of the kinase means IC50 >1 μM.
Sequence of PI3Kγ (P48736 whole entry, species assumed): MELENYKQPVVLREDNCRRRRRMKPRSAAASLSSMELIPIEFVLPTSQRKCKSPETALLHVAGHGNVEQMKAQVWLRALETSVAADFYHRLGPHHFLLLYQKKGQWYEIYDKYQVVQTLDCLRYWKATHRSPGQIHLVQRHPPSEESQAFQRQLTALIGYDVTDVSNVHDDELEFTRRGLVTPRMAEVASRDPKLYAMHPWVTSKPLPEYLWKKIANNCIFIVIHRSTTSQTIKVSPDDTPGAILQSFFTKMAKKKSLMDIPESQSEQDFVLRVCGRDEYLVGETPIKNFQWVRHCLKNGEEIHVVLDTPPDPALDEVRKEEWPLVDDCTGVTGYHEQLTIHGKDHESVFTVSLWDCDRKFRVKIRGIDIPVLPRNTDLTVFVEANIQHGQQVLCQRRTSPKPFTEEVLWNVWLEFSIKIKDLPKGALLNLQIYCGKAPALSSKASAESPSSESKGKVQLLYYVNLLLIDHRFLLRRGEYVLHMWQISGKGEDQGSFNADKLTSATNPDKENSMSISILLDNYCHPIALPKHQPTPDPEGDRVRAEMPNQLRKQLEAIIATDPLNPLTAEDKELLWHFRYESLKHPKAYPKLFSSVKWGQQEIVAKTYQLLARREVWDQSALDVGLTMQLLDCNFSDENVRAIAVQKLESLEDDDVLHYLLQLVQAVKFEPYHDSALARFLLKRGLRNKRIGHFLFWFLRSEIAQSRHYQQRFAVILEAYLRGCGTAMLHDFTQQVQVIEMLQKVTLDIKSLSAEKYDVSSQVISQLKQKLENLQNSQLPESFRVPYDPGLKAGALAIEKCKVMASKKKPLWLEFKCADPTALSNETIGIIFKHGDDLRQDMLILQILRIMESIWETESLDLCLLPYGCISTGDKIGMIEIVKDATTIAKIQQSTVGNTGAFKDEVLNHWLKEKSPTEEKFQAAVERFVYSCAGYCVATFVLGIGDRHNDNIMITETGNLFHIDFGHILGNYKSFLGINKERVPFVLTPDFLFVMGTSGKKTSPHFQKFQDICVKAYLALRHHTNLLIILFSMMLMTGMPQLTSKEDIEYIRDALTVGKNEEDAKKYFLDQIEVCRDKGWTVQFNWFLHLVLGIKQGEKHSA
In assay [1] the test system is Colo205 colorectal tumor cells with BRaf V600E mutation. Nature of the assay: Colo205 xenograft mouse model. The assay is classed as in vivo. The following applies: female nu/nu mice, 10 mg/kg daily for fourteen days, vs vehicle control. On the procedure:
Female nu/nu mice are implanted with Colo-205 trocar fragments from donor mice, sub-cutaneous and high in the axilla. Tumor growth is monitored to approximately 100 mg size, and mice are distributed to treatment groups such that the mean tumor burden within a group is within 10% of the overall mean tumor burden. Mice are treated with vehicle control, positive control or compound (8 mice per group) in 5% DMSO and 95% CMC (1%), with compound dosed at 10 mg/kg daily for fourteen days. Mice are observed daily, with tumor burden and body weights measured twice a week. Animals with tumor burden above 1500-2000 mg and any animals in moribund condition are euthanized. The average tumor growth of vehicle control group mice is compared to the average tumor growth of the test compound mice. Percent tumor growth inhibition is calculated as 100×[(tumor growth control-tumor growth test compound)/tumor growth control].

Another assay has as its target PI3Kδ (Homo sapiens, UniProt O00329). In words: Biochemical inhibitory activity, other protein kinases: PI3Kδ. To be noted: listing of the kinase means IC50 >1 μM.
The next assay has as its target mTor (Homo sapiens, UniProt P42345). In words: Biochemical inhibitory activity, other protein kinases: mTor. To be noted: listing of the kinase means IC50 >1 μM.
The next assay addresses MAPKAPK2 (Homo sapiens, UniProt P49137). Nature of the assay: Biochemical inhibitory activity, other protein kinases: MAPKAPK2. The following applies: listing of the kinase means IC50 >1 μM.
The next assay has as its target TrkA (Homo sapiens, UniProt P04629). In words: Biochemical inhibitory activity, other protein kinases: TrkA. To be noted: listing of the kinase means IC50 >1 μM.
The next assay deals with Ack1 (Homo sapiens, UniProt Q07912). Nature of the assay: Biochemical inhibitory activity, other protein kinases: Ack1. The following applies: listing of the kinase means IC50 <1 μM.
The next assay concerns the target Flt1 (Homo sapiens, UniProt P17948). In words: Biochemical inhibitory activity, other protein kinases: Flt1. To be noted: listing of the kinase means IC50 >1 μM.

Sequence of MAPKAPK2 (P49137 whole entry, species assumed): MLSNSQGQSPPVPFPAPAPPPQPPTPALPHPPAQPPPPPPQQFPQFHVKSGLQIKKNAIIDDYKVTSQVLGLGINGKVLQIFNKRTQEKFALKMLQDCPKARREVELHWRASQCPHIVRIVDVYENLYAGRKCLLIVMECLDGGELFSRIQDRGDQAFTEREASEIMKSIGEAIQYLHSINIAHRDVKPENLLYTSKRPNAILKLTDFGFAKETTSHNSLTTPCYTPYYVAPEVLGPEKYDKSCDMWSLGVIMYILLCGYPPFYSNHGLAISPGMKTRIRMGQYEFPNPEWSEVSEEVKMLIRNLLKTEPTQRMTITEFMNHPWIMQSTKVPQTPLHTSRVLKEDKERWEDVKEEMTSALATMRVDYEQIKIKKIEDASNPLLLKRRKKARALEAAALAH
Sequence of TrkA (P04629 33-796, species assumed): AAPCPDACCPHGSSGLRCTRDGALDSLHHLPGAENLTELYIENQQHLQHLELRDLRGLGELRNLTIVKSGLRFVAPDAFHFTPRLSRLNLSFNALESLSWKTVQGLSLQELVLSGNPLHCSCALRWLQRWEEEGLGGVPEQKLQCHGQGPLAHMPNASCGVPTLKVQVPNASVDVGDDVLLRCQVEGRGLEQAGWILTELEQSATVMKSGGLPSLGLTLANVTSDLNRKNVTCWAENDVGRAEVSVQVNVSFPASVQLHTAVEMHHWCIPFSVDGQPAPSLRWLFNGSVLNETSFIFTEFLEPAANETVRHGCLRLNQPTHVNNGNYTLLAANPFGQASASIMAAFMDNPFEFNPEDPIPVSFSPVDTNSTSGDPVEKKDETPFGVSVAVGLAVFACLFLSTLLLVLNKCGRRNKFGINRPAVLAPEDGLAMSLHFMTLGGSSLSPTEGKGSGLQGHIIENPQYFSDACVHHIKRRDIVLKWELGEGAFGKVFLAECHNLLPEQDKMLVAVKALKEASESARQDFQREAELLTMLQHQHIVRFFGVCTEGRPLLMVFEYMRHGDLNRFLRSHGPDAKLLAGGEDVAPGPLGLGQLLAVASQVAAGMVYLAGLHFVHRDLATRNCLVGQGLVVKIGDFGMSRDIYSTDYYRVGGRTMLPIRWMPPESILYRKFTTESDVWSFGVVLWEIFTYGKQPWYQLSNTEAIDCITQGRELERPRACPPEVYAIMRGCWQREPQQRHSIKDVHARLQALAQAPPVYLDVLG
Sequence of Brk (Q13882 whole entry, species assumed): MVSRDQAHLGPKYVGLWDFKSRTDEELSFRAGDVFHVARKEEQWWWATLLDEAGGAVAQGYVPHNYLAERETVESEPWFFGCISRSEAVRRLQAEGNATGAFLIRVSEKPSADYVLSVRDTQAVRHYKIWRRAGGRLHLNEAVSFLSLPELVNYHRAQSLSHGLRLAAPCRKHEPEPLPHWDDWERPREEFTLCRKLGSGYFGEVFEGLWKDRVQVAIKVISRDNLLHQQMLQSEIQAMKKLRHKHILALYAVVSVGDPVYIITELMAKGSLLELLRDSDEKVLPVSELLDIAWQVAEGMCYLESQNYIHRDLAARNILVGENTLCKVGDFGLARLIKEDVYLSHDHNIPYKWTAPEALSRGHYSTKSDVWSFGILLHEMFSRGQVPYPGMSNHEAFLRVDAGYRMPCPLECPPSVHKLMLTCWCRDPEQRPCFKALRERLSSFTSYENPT
Sequence of Flt1 (P17948 27-1338, species assumed): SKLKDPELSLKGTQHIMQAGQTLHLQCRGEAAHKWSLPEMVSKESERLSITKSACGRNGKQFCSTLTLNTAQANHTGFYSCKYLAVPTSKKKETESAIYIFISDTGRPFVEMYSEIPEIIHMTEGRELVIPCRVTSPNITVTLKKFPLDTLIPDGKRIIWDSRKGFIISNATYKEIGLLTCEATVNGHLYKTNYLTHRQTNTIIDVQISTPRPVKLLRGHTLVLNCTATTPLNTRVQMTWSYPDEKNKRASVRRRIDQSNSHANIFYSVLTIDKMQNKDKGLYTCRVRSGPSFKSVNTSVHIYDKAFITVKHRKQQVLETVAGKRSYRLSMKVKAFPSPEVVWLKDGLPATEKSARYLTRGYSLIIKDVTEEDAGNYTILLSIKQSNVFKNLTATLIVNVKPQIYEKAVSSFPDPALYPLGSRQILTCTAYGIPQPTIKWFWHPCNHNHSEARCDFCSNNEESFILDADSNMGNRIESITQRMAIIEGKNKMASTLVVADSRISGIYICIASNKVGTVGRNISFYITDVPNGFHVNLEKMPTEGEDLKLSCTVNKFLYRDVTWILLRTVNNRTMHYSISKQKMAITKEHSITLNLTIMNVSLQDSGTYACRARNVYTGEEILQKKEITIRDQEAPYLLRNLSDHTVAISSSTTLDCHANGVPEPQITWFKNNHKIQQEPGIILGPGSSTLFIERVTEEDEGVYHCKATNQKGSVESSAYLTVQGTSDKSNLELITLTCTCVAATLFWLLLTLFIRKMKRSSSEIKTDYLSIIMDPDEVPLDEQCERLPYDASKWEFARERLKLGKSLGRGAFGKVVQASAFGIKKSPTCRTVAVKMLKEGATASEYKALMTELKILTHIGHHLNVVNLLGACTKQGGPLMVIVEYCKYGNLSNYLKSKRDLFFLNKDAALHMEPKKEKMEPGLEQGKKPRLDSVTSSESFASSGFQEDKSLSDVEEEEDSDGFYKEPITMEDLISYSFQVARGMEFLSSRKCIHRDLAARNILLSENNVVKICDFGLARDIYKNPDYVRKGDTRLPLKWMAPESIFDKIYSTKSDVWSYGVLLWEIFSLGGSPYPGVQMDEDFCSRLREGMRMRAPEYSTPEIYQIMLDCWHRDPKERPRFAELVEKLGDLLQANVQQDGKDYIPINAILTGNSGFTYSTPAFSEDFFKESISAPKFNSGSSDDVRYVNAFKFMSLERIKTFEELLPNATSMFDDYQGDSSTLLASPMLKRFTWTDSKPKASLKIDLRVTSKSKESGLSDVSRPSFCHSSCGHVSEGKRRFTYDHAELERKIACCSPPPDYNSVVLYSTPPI
Sequence of Trk (P04629 33-796, species assumed): as the sequence (P04629 33-796, species assumed) above

As for `CCCS(=O)(=O)Nc1ccc(F)c(C(=O)c2c[nH]c3ncc(-c4cnc(OC)nc4)cc23)c1F` [Compound P-0001, propane-1-sulfonic acid {2,4-difluoro-3-[5-(2-methoxy-pyrimidin-5-yl)-1H-pyrrolo[2,3-b]pyridine-3-carbonyl]-phenyl}-amide], at Brk, the “Kinase having IC50 of <1 μM” value was “Brk”. Besides, the “Kinase having IC50 of >1 μM” value at PI3Kα was “PI3Kα”; at Itk, “Itk”; on Jnk1 it was “Jnk1”; on Trk, “Trk”; on PI3Kγ it was “PI3Kγ”; at PI3Kδ, “PI3Kδ”. Moreover, the “Kinase having IC50 of >1 μM” value at mTor is recorded as “mTor”; at MAPKAPK2, “MAPKAPK2”. In addition, the “% Tumor growth inhibition” value in assay [1] turned out to be 43%.

On to `CCCS(=O)(=O)Nc1ccc(F)c(C(=O)c2c[nH]c3ncc(C#N)cc23)c1F` [Compound P-0002, propane-1-sulfonic acid [3-(5-cyano-1H-pyrrolo[2,3-b]pyridine-3-carbonyl)-2,4-difluoro-phenyl]-amide], for which the “Kinase having IC50 of <1 μM” value at Brk is “Brk”; at Ack1, “Ack1”. For the same molecule, the “Kinase having IC50 of >1 μM” value at TrkA is given as “TrkA”; at Itk, “Itk”; on Flt1, “Flt1”; at MAPKAPK2, “MAPKAPK2”. Besides, the “% Tumor growth inhibition” value in [1] is listed as 80%.

For `CCCS(=O)(=O)Nc1cccc(C(=O)c2c[nH]c3ncc(C#N)cc23)c1F` [Compound P-0003, propane-1-sulfonic acid [3-(5-cyano-1H-pyrrolo[2,3-b]pyridine-3-carbonyl)-2-fluoro-phenyl]-amide], the “Kinase having IC50 of >1 μM” value is recorded as “TrkA” at TrkA and “MAPKAPK2” at MAPKAPK2. Further, in [1], the “% Tumor growth inhibition” value worked out at 91%.

`N#Cc1cnc2[nH]cc(C(=O)c3c(F)ccc(NS(=O)(=O)c4cc(F)ccc4F)c3F)c2c1` [Compound P-0004, N-[3-(5-cyano-1H-pyrrolo[2,3-b]pyridine-3-carbonyl)-2,4-difluoro-phenyl]-2,5-difluoro-benzenesulfonamide]: the “Kinase having IC50 of >1 μM” value at Itk is “Itk”; on Jnk1, “Jnk1”. Also, the “% Tumor growth inhibition” value in assay [1] is 103%.

Consider `N#Cc1cnc2[nH]cc(C(=O)c3c(F)ccc(NS(=O)(=O)c4cccc(F)c4)c3F)c2c1` [Compound P-0005, N-[3-(5-cyano-1H-pyrrolo[2,3-b]pyridine-3-carbonyl)-2,4-difluoro-phenyl]-3-fluoro-benzenesulfonamide], for which the “Kinase having IC50 of >1 μM” value was “Itk” at Itk and “Jnk1” at Jnk1. In addition, the “% Tumor growth inhibition” value in [1] came out at 88%.

On to `N#Cc1cnc2[nH]cc(C(=O)c3c(F)ccc(NS(=O)(=O)N4CCCC4)c3F)c2c1` [Compound P-0006, pyrrolidine-1-sulfonic acid [3-(5-cyano-1H-pyrrolo[2,3-b]pyridine-3-carbonyl)-2,4-difluoro-phenyl]-amide], for which the “% Tumor growth inhibition” value in [1] is on record as 82%. Further, the “Kinase having IC50 of >1 μM” value on MAPKAPK2 is “MAPKAPK2”.

With `CN(C)S(=O)(=O)Nc1ccc(F)c(C(=O)c2c[nH]c3ncc(C#N)cc23)c1F` [Compound P-0007, N,N-dimethylamino-sulfonic acid [3-(5-cyano-1H-pyrrolo[2,3-b]pyridine-3-carbonyl)-2,4-difluoro-phenyl]-amide], the “Kinase having IC50 of >1 μM” value at Itk is recorded as “Itk”; on Jnk1, “Jnk1”; on MAPKAPK2, “MAPKAPK2”. In assay [1], the “% Tumor growth inhibition” value is 86%.
